Laboratory results taken from patent US9617267B2, “Compounds and methods for kinase modulation, and indications therefor” (Plexxikon Inc., priority 2009, dated 2017).
Like-named read-outs stand apart in the source and are kept apart here.

How the values were obtained:
[1] = tested on: B-Raf; assay: B-Raf kinase activity biochemical assay (AlphaScreen, biotin-MEK1 phosphorylation); details: for Biochemical activity ratio B/V600E: ratio of IC50 B-Raf / B-Raf V600E; for Biochemical activity ratio B/C: ratio of IC50 B-Raf / c-Raf-1
In short: (§1)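 Biotin-MEK1 phosphorylation measured after 45 min kinase reaction at RT with 100 μM ATP final; compounds tested at 8 points from 0.1 mM DMSO stock.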

[2] = target: B-Raf (Homo sapiens (Human), UniProt P15056); assay: as above; details: B-Raf
In short: as §1

[3] = target: c-Raf-1 (Homo sapiens, UniProt P04049); assay: c-Raf-1 kinase activity biochemical assay (AlphaScreen, biotin-MEK1 phosphorylation)
In short: as §1

[4] = target: CYP3A4(BFC) (Homo sapiens (Human), UniProt P08684); assay: CYP enzyme inhibition, fluorescent substrate BFC
In short: (§2)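 Human CYP activity was followed by the fluorescence of the metabolized product of a known substrate, which falls as metabolism is inhibited. Compounds from 100 mM DMSO stocks were serially diluted 1:1 over 10 points in co-factor mix and preincubated 10 min at 37 °C. IC50 was fitted from signal versus concentration.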

[5] = Relative solubility by turbidity threshold concentration in aqueous buffers (pH 1.5, 4.5, 6.8, 7.4); format: physicochemical; details: for turbidity threshold (L, M, H) 1.4: pH 1.4 [sic] (method: SGF pH 1.5); for turbidity threshold (L, M, H) 4.5: pH 4.5 (SIF); for turbidity threshold (L, M, H) 6.8: pH 6.8 (SIF); for turbidity threshold (L, M, H) 7.4: pH 7.4 (HEPES)
In short: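 Solubility class (high >250 μM, moderate 31.3–250 μM, low <31.3 μM) comes from the concentration where absorbance reaches a 0.01 threshold, averaged across 490/535/650 nm. Samples were compound dilutions from DMSO stock, 1 μL into 99 μL buffer at pH 1.5, 4.5, 6.8 or 7.4.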

[6] = target: B-Raf V600E (Homo sapiens (Human), UniProt P15056, V600E); assay: B-Raf V600E kinase activity biochemical assay (AlphaScreen, biotin-MEK1 phosphorylation); details: for IC50: B-Raf V600E; for Biochemical activity ratio V600E/C: ratio of IC50 B-Raf V600E / c-Raf-1
In short: as §1

[7] = target: CYP2D6 (Homo sapiens (Human), UniProt P10635); assay: CYP enzyme inhibition, fluorescent substrate (AMMC); format: in vitro ADME; details: read-out: Cyp IC50 2D6
In short: (§3)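 Ten-point 1:1 compound dilutions in NADPH-regenerating cofactor mix, pre-incubated 10 min at 37 °C before enzyme/substrate addition: CYP1A2 0.5 pmol with 5 μM CEC, 15 min, 409 ex/460 em; CYP2D6 1.5 pmol with 1.5 μM AMMC, 30 min, 409 ex/530 em. IC50 from fluorescent product vs concentration.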

[8] = target: CYP1A2 (Homo sapiens (Human), UniProt P05177); assay: CYP enzyme inhibition, fluorescent substrate (CEC); details: human, 15 min
In short: as §3

[9] = target: CYP2C19 (Homo sapiens (Human), UniProt P33261); assay: CYP enzyme inhibition, fluorescent substrate (CEC); details: read-out: Cyp IC50 2C19; CYP2C19, substrate CEC
In short: as §2

[10] = target: CYP3A4(BQ) (Homo sapiens (Human), UniProt P08684); assay: CYP enzyme inhibition, fluorescent substrate BQ; details: read-out: Cyp IC50 3A4(BQ); CYP3A4, substrate BQ
In short: as §2

[11] = target: CYP2C9 (Homo sapiens (Human), UniProt P11712); assay: CYP enzyme inhibition, fluorescent substrate (MFC)
In short: as §2

[12] = read-out: Cyp IC50 3A4(BFC), CYP3A4, substrate BFC
[13] = read-out: Cyp IC50 2C9, CYP2C9, substrate MFC

Sequence of CYP2C9 (P11712 whole entry): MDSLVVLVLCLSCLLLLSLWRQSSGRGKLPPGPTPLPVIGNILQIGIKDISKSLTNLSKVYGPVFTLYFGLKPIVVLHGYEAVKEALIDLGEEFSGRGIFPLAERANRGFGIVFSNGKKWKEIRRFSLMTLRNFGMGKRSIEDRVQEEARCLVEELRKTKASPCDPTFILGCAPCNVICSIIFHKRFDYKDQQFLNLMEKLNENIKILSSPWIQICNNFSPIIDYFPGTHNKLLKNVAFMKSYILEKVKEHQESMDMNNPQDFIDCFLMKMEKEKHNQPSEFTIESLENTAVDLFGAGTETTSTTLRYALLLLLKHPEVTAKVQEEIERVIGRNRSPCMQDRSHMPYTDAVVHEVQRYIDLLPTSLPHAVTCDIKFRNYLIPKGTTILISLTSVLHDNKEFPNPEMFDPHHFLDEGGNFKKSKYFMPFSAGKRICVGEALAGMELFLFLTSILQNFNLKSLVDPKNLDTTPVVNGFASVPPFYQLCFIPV
Sequence of CYP2D6 (P10635 whole entry): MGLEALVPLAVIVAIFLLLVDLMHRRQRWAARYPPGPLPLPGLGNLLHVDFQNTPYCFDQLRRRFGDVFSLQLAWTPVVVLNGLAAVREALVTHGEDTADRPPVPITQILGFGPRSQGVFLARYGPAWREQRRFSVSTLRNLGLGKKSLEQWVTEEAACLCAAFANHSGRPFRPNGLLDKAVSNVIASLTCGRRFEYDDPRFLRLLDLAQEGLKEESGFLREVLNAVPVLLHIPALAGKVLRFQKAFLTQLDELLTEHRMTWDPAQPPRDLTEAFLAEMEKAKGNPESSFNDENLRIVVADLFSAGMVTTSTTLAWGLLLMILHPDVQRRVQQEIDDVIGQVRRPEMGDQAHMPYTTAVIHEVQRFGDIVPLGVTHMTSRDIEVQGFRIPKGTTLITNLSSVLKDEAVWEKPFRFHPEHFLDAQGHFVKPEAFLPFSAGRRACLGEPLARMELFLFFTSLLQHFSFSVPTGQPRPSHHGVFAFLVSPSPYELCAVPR
Sequence of CYP1A2 (P05177 whole entry): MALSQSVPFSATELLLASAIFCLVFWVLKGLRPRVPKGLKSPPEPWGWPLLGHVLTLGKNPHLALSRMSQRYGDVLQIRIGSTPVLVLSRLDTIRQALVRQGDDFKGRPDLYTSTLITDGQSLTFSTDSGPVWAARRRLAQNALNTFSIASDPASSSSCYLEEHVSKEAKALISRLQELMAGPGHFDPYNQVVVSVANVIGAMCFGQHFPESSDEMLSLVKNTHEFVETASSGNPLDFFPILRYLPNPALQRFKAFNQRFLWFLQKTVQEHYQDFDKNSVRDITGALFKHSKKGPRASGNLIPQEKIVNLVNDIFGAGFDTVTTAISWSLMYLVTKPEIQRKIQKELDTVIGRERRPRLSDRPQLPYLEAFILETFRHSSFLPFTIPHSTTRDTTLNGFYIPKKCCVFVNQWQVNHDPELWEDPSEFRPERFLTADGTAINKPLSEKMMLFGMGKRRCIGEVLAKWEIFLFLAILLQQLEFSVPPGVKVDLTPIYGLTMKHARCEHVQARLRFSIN
Sequence of B-Raf V600E (P15056 whole entry V600E): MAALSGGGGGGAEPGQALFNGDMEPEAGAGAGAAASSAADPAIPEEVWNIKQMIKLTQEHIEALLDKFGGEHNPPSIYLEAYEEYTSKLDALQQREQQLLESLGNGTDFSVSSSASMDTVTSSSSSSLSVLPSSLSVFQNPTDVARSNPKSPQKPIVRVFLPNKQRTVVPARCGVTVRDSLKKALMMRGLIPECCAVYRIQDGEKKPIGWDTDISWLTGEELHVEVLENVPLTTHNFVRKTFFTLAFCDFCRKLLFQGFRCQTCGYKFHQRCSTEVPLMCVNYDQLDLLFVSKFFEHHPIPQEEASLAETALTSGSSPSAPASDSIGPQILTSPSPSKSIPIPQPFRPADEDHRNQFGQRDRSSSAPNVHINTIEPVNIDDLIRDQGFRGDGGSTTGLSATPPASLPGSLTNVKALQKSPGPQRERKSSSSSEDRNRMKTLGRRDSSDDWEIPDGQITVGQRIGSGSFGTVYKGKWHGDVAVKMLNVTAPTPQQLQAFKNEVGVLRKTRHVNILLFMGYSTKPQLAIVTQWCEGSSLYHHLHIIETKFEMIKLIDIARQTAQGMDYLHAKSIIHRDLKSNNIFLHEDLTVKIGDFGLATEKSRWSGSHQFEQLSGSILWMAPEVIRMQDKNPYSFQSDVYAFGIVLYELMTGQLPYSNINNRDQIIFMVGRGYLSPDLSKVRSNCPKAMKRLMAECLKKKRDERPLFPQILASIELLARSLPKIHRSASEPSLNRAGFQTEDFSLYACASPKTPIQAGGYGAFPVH
Sequence of CYP2C19 (P33261 whole entry): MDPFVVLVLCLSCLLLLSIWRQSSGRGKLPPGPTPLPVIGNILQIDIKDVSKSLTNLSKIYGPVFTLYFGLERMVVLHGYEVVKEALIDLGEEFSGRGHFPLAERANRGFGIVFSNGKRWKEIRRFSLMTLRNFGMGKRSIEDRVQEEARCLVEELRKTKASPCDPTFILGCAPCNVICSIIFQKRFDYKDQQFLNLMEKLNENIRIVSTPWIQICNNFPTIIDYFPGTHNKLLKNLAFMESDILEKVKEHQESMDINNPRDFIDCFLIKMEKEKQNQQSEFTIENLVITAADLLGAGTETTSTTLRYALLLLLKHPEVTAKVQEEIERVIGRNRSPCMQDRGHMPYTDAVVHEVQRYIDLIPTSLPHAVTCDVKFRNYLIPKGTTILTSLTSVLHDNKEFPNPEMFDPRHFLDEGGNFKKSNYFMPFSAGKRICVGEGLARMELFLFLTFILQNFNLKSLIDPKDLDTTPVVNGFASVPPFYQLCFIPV
Sequence of CYP3A4(BFC) (P08684 whole entry): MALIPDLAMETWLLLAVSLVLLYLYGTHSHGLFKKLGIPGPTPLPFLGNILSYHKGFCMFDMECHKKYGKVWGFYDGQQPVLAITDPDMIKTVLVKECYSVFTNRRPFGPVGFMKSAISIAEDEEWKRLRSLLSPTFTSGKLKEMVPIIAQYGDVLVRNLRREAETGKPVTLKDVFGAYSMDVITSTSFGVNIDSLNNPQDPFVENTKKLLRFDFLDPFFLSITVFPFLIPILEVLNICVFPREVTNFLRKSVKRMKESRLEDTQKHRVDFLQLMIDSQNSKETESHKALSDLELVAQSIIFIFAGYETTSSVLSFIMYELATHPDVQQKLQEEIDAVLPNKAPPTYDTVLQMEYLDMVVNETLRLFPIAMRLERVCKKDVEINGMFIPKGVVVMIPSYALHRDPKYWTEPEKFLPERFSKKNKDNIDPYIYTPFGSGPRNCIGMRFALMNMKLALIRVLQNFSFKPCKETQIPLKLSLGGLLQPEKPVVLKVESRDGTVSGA
Sequence of CYP3A4(BQ) (P08684 whole entry): as above
Sequence of B-Raf (Homo sapiens (Human), UniProt P15056) (P15056 whole entry): as the sequence (P15056 whole entry V600E) above, with E600V counted along it
Sequence of c-Raf-1 (P04049 whole entry, looked up): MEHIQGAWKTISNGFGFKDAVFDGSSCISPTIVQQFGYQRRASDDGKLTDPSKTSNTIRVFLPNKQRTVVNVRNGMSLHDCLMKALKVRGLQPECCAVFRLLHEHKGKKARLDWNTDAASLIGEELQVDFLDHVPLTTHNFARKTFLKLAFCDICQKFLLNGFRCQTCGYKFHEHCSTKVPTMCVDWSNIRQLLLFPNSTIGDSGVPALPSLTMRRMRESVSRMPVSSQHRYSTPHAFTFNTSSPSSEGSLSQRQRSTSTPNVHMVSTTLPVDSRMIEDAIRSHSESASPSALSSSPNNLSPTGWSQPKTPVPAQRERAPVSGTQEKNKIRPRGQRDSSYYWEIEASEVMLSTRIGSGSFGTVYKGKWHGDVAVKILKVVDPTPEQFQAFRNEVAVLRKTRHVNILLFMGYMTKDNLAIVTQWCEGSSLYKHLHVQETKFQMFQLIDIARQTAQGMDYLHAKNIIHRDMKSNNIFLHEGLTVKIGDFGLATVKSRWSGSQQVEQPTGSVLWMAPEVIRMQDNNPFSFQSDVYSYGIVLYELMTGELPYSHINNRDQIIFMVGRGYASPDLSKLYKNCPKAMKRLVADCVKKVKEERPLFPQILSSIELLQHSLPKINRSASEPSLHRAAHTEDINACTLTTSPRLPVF

SMILES | Biochemical activity ratio B/V600E [1] | Biochemical activity ratio B/C [1] | IC50 [2] | IC50 [3] | IC50 [4, 12] | turbidity threshold (L, M, H) 1.4 [5] | turbidity threshold (L, M, H) 4.5 [5] | turbidity threshold (L, M, H) 6.8 [5] | turbidity threshold (L, M, H) 7.4 [5] | IC50 [6] | Biochemical activity ratio V600E/C [6] | IC50 [7] | IC50 [8] | IC50 [9] | IC50 [10] | IC50 [11] | IC50 [4] | IC50 [11, 13]
O=C(c1c(F)ccc(NS(=O)(=O)c2ccc(C(F)(F)F)cc2)c1F)c1c[nH]c2ncnc(NC3CCOC3)c12 (centres unmarked) [P-1054, N-{2,4-Difluoro-3-[4-(tetrahydro-furan-3-ylamino)-7H-pyrrolo[2,3-d]pyrimidine-5-carbonyl]-phenyl}-4-trifluoromethyl-benzenesulfonamide] | 0.1-10 | 0.1-10 | < 0.1 µM | < 0.1 µM | > 10 µM | M (moderate solubility if the threshold concentration is 31.3 μM to 250 μM) | L (low solubility if the threshold concentration is <31.3 μM) | L (low solubility if the threshold concentration is <31.3 μM) | L (low solubility if the threshold concentration is <31.3 μM) | < 0.1 µM | >10 | > 10 µM | > 10 µM | > 10 µM | > 10 µM | 5 to 10 µM | – | –
CCCc1ccc(S(=O)(=O)Nc2ccc(F)c(C(=O)c3c[nH]c4ncnc(NC(C)C)c34)c2F)cc1 [P-1055, N-[2,4-Difluoro-3-(4-isopropylamino-7H-pyrrolo[2,3-d]pyrimidine-5-carbonyl)-phenyl]-4-propyl-benzenesulfonamide] | 0.1-10 | 0.1-10 | < 0.1 µM | < 0.1 µM | – | L (low solubility if the threshold concentration is <31.3 μM) | L (low solubility if the threshold concentration is <31.3 μM) | L (low solubility if the threshold concentration is <31.3 μM) | L (low solubility if the threshold concentration is <31.3 μM) | > 0.1 µM | >10 | > 10 µM | > 10 µM | < 5 µM | > 10 µM | 5 to 10 µM | 5 to 10 µM | –
CCCc1ccc(S(=O)(=O)Nc2ccc(F)c(C(=O)c3c[nH]c4ncnc(NC5COC5)c34)c2F)cc1 [P-1056, N-{2,4-Difluoro-3-[4-(oxetan-3-ylamino)-7H-pyrrolo[2,3-d]pyrimidine-5-carbonyl]-phenyl}-4-propyl-benzenesulfonamide] | 0.1-10 | >10 | < 0.1 µM | < 0.1 µM | > 10 µM | M (moderate solubility if the threshold concentration is 31.3 μM to 250 μM) | L (low solubility if the threshold concentration is <31.3 μM) | L (low solubility if the threshold concentration is <31.3 μM) | L (low solubility if the threshold concentration is <31.3 μM) | > 0.1 µM | >10 | > 10 µM | > 10 µM | > 10 µM | > 10 µM | – | – | > 10 µM
CN1CCC(Nc2ncnc3[nH]cc(C(=O)c4c(F)ccc(NS(=O)(=O)c5ccc(C(F)(F)F)cc5)c4F)c23)CC1 [P-1057, N-{2,4-Difluoro-3-[4-(1-methyl-piperidin-4-ylamino)-7H-pyrrolo[2,3-d]pyrimidine-5-carbonyl]-phenyl}-4-trifluoromethyl-benzenesulfonamide] | 0.1-10 | 0.1-10 | < 0.1 µM | < 0.1 µM | > 10 µM | H (high solubility if the threshold concentration is >250 μm) | H (high solubility if the threshold concentration is >250 μm) | M (moderate solubility if the threshold concentration is 31.3 μM to 250 μM) | M (moderate solubility if the threshold concentration is 31.3 μM to 250 μM) | > 0.1 µM | >10 | > 10 µM | > 10 µM | > 10 µM | > 10 µM | – | – | > 10 µM
COCCNc1ncnc2[nH]cc(C(=O)c3c(F)ccc(NS(=O)(=O)c4ccc(C(F)(F)F)cc4)c3F)c12 [P-1058, N-{2,4-Difluoro-3-[4-(2-methoxy-ethylamino)-7H-pyrrolo[2,3-d]pyrimidine-5-carbonyl]-phenyl}-4-trifluoromethyl-benzenesulfonamide] | 0.1-10 | 0.1-10 | < 0.1 µM | < 0.1 µM | – | M (moderate solubility if the threshold concentration is 31.3 μM to 250 μM) | L (low solubility if the threshold concentration is <31.3 μM) | L (low solubility if the threshold concentration is <31.3 μM) | L (low solubility if the threshold concentration is <31.3 μM) | > 0.1 µM | >10 | > 10 µM | > 10 µM | > 10 µM | > 10 µM | – | 5 to 10 µM | > 10 µM
CN(C)CCNc1ncnc2[nH]cc(C(=O)c3c(F)ccc(NS(=O)(=O)c4ccc(C(F)(F)F)cc4)c3F)c12 [P-1059, N-{3-[4-(2-Dimethylamino-ethylamino)-7H-pyrrolo[2,3-d]pyrimidine-5-carbonyl]-2,4-difluoro-phenyl}-4-trifluoromethyl-benzenesulfonamide] | 0.1-10 | 0.1-10 | > 0.1 µM | < 0.1 µM | > 10 µM | H (high solubility if the threshold concentration is >250 μm) | M (moderate solubility if the threshold concentration is 31.3 μM to 250 μM) | M (moderate solubility if the threshold concentration is 31.3 μM to 250 μM) | M (moderate solubility if the threshold concentration is 31.3 μM to 250 μM) | > 0.1 µM | >10 | > 10 µM | > 10 µM | > 10 µM | > 10 µM | – | – | > 10 µM
CCCS(=O)(=O)Nc1ccc(F)c(C(=O)c2c[nH]c3ncnc(NC4COC4)c23)c1F [P-1060, Propane-1-sulfonic acid {2,4-difluoro-3-[4-(oxetan-3-ylamino)-7H-pyrrolo[2,3-d]pyrimidine-5-carbonyl]-phenyl}-amide] | 0.1-10 | >10 | < 0.1 µM | < 0.1 µM | > 10 µM | H (high solubility if the threshold concentration is >250 μm) | M (moderate solubility if the threshold concentration is 31.3 μM to 250 μM) | H (high solubility if the threshold concentration is >250 μm) | H (high solubility if the threshold concentration is >250 μm) | < 0.1 µM | 0.1-10 | > 10 µM | > 10 µM | > 10 µM | > 10 µM | – | – | > 10 µM
O=C(c1c(F)ccc(NS(=O)(=O)c2ccc(C(F)(F)F)cc2)c1F)c1c[nH]c2ncnc(N3CCCC3)c12 [P-1061, N-[2,4-Difluoro-3-(4-pyrrolidin-1-yl-7H-pyrrolo[2,3-d]pyrimidine-5-carbonyl)-phenyl]-4-trifluoromethyl-benzenesulfonamide] | 0.1-10 | 0.1-10 | > 0.1 µM | > 0.1 µM | > 10 µM | H (high solubility if the threshold concentration is >250 μm) | M (moderate solubility if the threshold concentration is 31.3 μM to 250 μM) | M (moderate solubility if the threshold concentration is 31.3 μM to 250 μM) | H (high solubility if the threshold concentration is >250 μm) | > 0.1 µM | >10 | > 10 µM | > 10 µM | > 10 µM | > 10 µM | – | – | > 10 µM
